Converted amounts (≈) assume the structure as drawn.
Columns and labels:
herpes simplex virus = experiment: inhibition of herpes simplex virus multiplication in tissue culture (plaque formation technic of Rapp); format: cell-based; settings: for IC50: read-out: Concentration required to exert 50% inhibition of herpes-induced plaque formation; for IC100: read-out: Concentration required to exert 100% inhibition of herpes-induced plaque formation
light sensitivity = format: physicochemical
[1] = system: influenza A2 virus, Hong Kong strain; experiment: microbe, parasite or virus in culture; format: cell-based
influenza A/PR/8 = experiment: prevention of death in mice with lethal influenza A/PR/8 infection; format: in vivo; settings: for % of Population Protected / % Mortality: 8 days; for % Mortality: control 95
Procedure: The above medication was also examined for its capacity to prevent death in mice ill with a lethal influenza A/PR/8 infection. The drug was given subcutaneously at 3 dose levels, once 90 minutes before infection.

influenza A2 /Hong Kong = experiment: suppression of influenza A2/Hong Kong disease in mice (lung weight); format: in vivo; settings: 40 mg/Kg orally from 24 h post-infection; 8 days; from lung weights; 50% of drug blocked at 1,2- with acetone
[2] = 10 mg/Kg s.c. once 90 min before infection
[3] = 40 mg/Kg s.c. once 90 min before infection
[4] = 160 mg/Kg s.c. once 90 min before infection

NCCCO[C@H]1[C@H](O)[C@@H](CO)OC(O)[C@@H]1O (stereo partly drawn) [3-O-3'-n-propylamino-D-glucose, 3-O-3'-(n-propylamino)-D-glucopyranose]
IC50 (herpes simplex virus): 3 µg/mL (≈ 12.6 µM)
IC100 (herpes simplex virus): > 20 µg/mL

CN1CCC(O[C@H]2[C@H](O)[C@@H](CO)OC(O)[C@@H]2O)CC1 (stereo partly drawn) [3-O-4'-(N-methylpiperidyl)-D-glucose, 3-O-4'-(N-methylpiperidyl)-D-glucopyranose]
IC50 (herpes simplex virus): 0.7 µg/mL (≈ 2.52 µM)
IC100 (herpes simplex virus): 6 µg/mL

3-O-D-glucopropionitrile
light sensitivity (light sensitivity): photosensitive

CCN(CC)CCOC1C(C2COC(C)(C)O2)OC2OC(C)(C)OC21 [1,2:5,6-di-O-isopropylidene-3-O-2'-(N',N'-diethylaminoethyl)-D-glucofuranose]
IC50 (herpes simplex virus): 6 µg/mL (≈ 16.7 µM)
IC100 (herpes simplex virus): 30 µg/mL

CC(CO[C@H]1[C@H](O)[C@@H](CO)OC(O)[C@@H]1O)CN(C)C (stereo partly drawn) [3-O-3'-(2',N',N'-trimethylamino-n-propyl)-D-glucopyranose]
IC50 (herpes simplex virus): 2 µg/mL (≈ 7.16 µM)
IC100 (herpes simplex virus): 7 µg/mL

CC(CN(C)C)O[C@H]1[C@H](O)[C@@H](CO)OC(O)[C@@H]1O (stereo partly drawn) [3-O-2'-(N',N'-dimethylaminopropyl)-D-glucopyranose]
Concentration required to exert 50% inhibition of herpes-induced plaque formation (herpes simplex virus; herpes simplex, tissue culture): 3 µg/mL
Concentration required to exert 100% inhibition of herpes-induced plaque formation (herpes simplex virus; herpes simplex, tissue culture): < 20 µg/mL

CC1(C)OCC(C2OC3OC(C)(C)OC3C2OCCC#N)O1 [di-O-isopropylidene-3-O-3'-propionitrile-D-glucofuranose]
light sensitivity (light sensitivity): light sensitive

CN(C)CCCOC[C@H]1OC(O)[C@H](O)[C@@H](O)[C@H]1O (stereo partly drawn) [6-O-3'-(N',N'-dimethylamino-n-propyl)-D-galactopyranose]
IC50 (herpes simplex virus): 2 µg/mL (≈ 7.54 µM)
IC100 (herpes simplex virus): > 10 µg/mL

CC(CN(C)C)O[C@H]1O[C@H](CO)[C@@H](O)[C@H](O)[C@H]1O (stereo partly drawn) [α-N,N-dimethylaminoisopropyl glucoside, α-N,N-dimethylaminoisopropyl-D-glucoside]
IC50 (herpes simplex virus): 10 µg/mL (≈ 37.7 µM)
IC100 (herpes simplex virus): > 50 µg/mL
log reduction at 3 µg/mL ([1]; 3 μg/ml, 100 TCD50 inoculum, BHK cells, 4.0 is maximum, read-out: Log Decrease in Infectivity of Virus Inoculum): 1.5
log reduction at 10 µg/mL ([1]; 10 μg/ml, 100 TCD50 inoculum, BHK cells, 4.0 is maximum (complete suppression), read-out: Log Decrease in Infectivity of Virus Inoculum): 2.5

CCN(CC)CCO[C@H]1[C@H](O)[C@@H](CO)OC(O)[C@@H]1O (stereo partly drawn) [3-O-2'-(N',N'-diethylaminoethyl)-D-glucopyranose]
IC50 (herpes simplex virus): 2 µg/mL (≈ 7.16 µM)
IC100 (herpes simplex virus): 20 µg/mL

CN(C)CCCO[C@H]1[C@H](O)[C@@H](CO)OC(O)[C@@H]1O (stereo partly drawn) [3-O-3'-(N',N'-dimethylamino-n-propyl)-D-glucopyranose]
% of Population Protected (influenza A/PR/8; [2]): 14%
% Mortality (influenza A/PR/8; [2]): 81%
% of Population Protected (influenza A/PR/8; [3]): 23%
% Mortality (influenza A/PR/8; [3]): 72%
% of Population Protected (influenza A/PR/8; [4]): 50%
% Mortality (influenza A/PR/8; [4]): 45%
protection against death (influenza A/PR/8; 3 s.c. dose levels, once 90 minutes before infection): significant dose-dependent protection against death
IC50 (herpes simplex virus): 0.3 µg/mL (≈ 1.13 µM)
IC100 (herpes simplex virus): 1 µg/mL
anti-herpes potency (herpes simplex virus; relative to other derivatives of Table 2): the most potent derivative
potency of virus-inhibiting effect [1]: the most potent effect
% Disease Suppression (influenza A2 /Hong Kong): 82%
